These results are taken from ChEMBL document CHEMBL1201862, “PubChem BioAssay data set” (2004).

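All cell lines were grown in 96-well plates and treated with compound for 48 hours. The concentration for 50% growth inhibition is given as GI50.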 Activity calls are given as the source filed them. Rule as the data show it: active = GI50 up to about 1.1 µM and inactive = higher. Where only a bound is given, the exact number is not on record here.

Among the test systems are M19-MEL; DLD-1; LXFL 529; XF498; RXF 631; BT-549; Hs-578T.
What all share (assay): NCI-60 cell line screen, 48 h

Consider `COc1cc(/C=C2/C(=O)N(C(=O)c3ccc(Cl)cc3)N=C2C)cc(OC)c1OC`, for which the GI50 with M19-MEL, in the assay with DLD-1, in the assay on LXFL 529 and in the assay on XF498 was > 100 µM (inactive) throughout.
As to `COC1=C(N)C(=O)c2nc(C)ccc2C1=O`, the GI50 is 0.308 µM (active) with M19-MEL, 2.31 µM (inactive) with DLD-1, 2.43 µM (inactive) in the assay with LXFL 529 and 1.51 µM (inactive) with XF498.
As to `O=C(O)COc1ccc(C(=O)/C(SS/C(C(=O)c2ccc(OCC(=O)O)c(Cl)c2Cl)=C2\C=C(c3ccccc3Cl)SS2)=C2/C=C(c3ccccc3Cl)SS2)c(Cl)c1Cl`, the GI50 in the assay on M19-MEL was 28.5 µM (inactive); in the assay with DLD-1, 25 µM (inactive); in the assay with LXFL 529, 5.5 µM (inactive); in the assay with XF498, 13.6 µM (inactive); with RXF 631, 25.5 µM (inactive).
For `Cc1nc2ccccc2c(=O)n1/N=C(\N=N\c1ccccc1Cl)c1ccccc1Cl` the same measures were > 100 µM (inactive), 67.5 µM (inactive), 52.1 µM (inactive), 11.9 µM (inactive) and 88.9 µM (inactive).
In the case of `CCCCC(C)/C=C/C(O)=C1\C(=O)O/C(=C\C(=O)O)C1=O` (stereo not given), the GI50 in the assay with LXFL 529, in the assay on XF498 and with RXF 631 was > 100 µM (inactive) throughout.
Take `O=C(NO)C(=O)Nc1ccc(Cl)cc1[N+](=O)[O-]`: the GI50 with M19-MEL, in the assay on DLD-1, with LXFL 529 and with RXF 631 was > 100 µM (inactive) each time.
Take `O=C(O)COc1ccc(C(=O)/C(SS/C(C(=O)c2ccc(OCC(=O)O)c(Cl)c2Cl)=C2\C=C(c3ccc(Br)cc3)SS2)=C2/C=C(c3ccc(Br)cc3)SS2)c(Cl)c1Cl`: the GI50 with BT-549 is 8.13 µM (inactive); in the assay on M19-MEL, 5.45 µM (inactive); with Hs-578T it was 3.57 µM (inactive); with DLD-1, 6.14 µM (inactive); with LXFL 529 it was 1.29 µM (inactive); in the assay on XF498 it was 3.19 µM (inactive).
With `CC(C)(O)[C@H](CCO)O[Si](c1ccccc1)(c1ccccc1)C(C)(C)C`, the GI50 in the assay on M19-MEL was 14.9 µM (inactive); in the assay with DLD-1, 8.93 µM (inactive); in the assay on LXFL 529 it was 11.6 µM (inactive); in the assay with XF498, 8.18 µM (inactive).
As to `NNc1nnc(-c2ccccc2)nc1Cc1ccccc1`, the GI50 with M19-MEL was 7.41 µM (inactive); with DLD-1, 13.4 µM (inactive); in the assay on LXFL 529, 3.85 µM (inactive); in the assay with XF498, 7.41 µM (inactive).
With `COc1ccc2[nH]c3c(C)c4cc[n+](COC(=O)c5ccccc5)cc4c(C)c3c2c1`, the GI50 in the assay with M19-MEL is 0.381 µM (active); in the assay on LXFL 529, 0.148 µM (active); in the assay with XF498, 1.48 µM (inactive); in the assay with RXF 631, 0.165 µM (active).
`CCOc1ccc(NC(=O)C(=O)CC(=O)c2c[n+]([O-])c3cc(C)c(C)cc3[n+]2[O-])cc1`: the GI50 in the assay on M19-MEL, in the assay with LXFL 529, in the assay with XF498 and in the assay on RXF 631 was > 100 µM (inactive) throughout.
As for `O=c1c2ccccc2nc(-c2ccccc2Cl)n1NCC1(O)OCC(O)C(O)C1O` (stereo not given), the GI50 in the assay with M19-MEL, in the assay with LXFL 529, in the assay on XF498 and in the assay on RXF 631 was > 100 µM (inactive) each time.
Consider `Cc1cc2oc(-c3ccccc3)c(C)c(=O)c2c2c1OC(C)(C)S2`, for which the GI50 is > 100 µM (inactive) with M19-MEL; 99.1 µM (inactive) in the assay on DLD-1; > 100 µM (inactive) in the assay with LXFL 529; > 100 µM (inactive) with XF498; > 100 µM (inactive) in the assay on RXF 631.
On to `COc1ccc(Nc2nc(C#N)c(N)s2)cc1`, for which the GI50 in the assay on DLD-1 is 48.6 µM (inactive); with LXFL 529, 31.9 µM (inactive); with XF498 it was 21.4 µM (inactive); in the assay on RXF 631, 35.9 µM (inactive).
As for `OC1CCC[C@@H]1Sc1ccccc1` (stereo not given in full), the GI50 with M19-MEL, in the assay on DLD-1, in the assay with LXFL 529, with XF498 and in the assay on RXF 631 was > 100 µM (inactive) throughout.
